From PMC6102670, “Three New Highly Oxygenated Germacranolides from Carpesium Divaricatum and Their Cytotoxic Activity” (Molecules : A Journal of Synthetic Chemistry and Natural …, 2018)
Where two headings read alike, the source gives them in different places.

Experiments:
Type in all cases: cell-based, Human
Conditions in all cases: 4 days incubation, mean ± SD, triplicate
[1] = tested on: Hep G2 hepatocellular cancer cell line; assay: MTT cytotoxicity assay, Hep G2 cells
Experimental: (§1) Cell cultures: Human A549, HepG2, and HeLa cell lines from Cancer Institute and Hospital of Chinese Academy of Medical Sciences (Beijing, China), were cultured in Dulbecco’s modified Eagle’s medium (DMEM, Gibco, CA, USA) supplemented with 10% (v/v) fetal calf serum (Gibco, CA, USA), penicillin G (Macgene, China) 100 units mL^−1 and streptomycin (Macgene, China) 100 μg mL^−1, at 37 °C under 5% CO2.
(§2) Cell viability assay: The assay was run in triplicate. In a 96-well plate, each well was plated with 2 × 10^4 cells. After cell attachment overnight, the medium was removed, and each well was treated with 100 μL of medium containing 0.1% DMSO or different concentrations of the test compounds and the positive control cis-platin. The plate was incubated at 37 °C for 4 days in a humidified, 5% CO2 atmosphere. Cytotoxicity was determined using a modified 3-(4,5-dimethylthiazol-2-yl)-2,5-diphenyltetrazolium bromide (MTT) colorimetric assay. After the addition of a 10 μL MTT solution (5 mg/mL), cells were incubated at 37 °C for 4 h. After adding 150 μL DMSO, cells were shaken to mix thoroughly. The absorbance of each well was measured at 540 nm in a Multiscan photometer.
(§3) Statistical analysis: Values were expressed as mean ± SD. Statistical analyses were performed using the Student’s t-test. Differences were considered significant when associated with a probability of 5% or less (p ≤ 0.05).

[2] = tested on: HeLa cervical cancer cell line; assay: MTT cytotoxicity assay, HeLa cells
Experimental: as §1, §2, §3

[3] = tested on: A549 lung cancer cell line; assay: MTT cytotoxicity assay, A549 cells
Experimental: as §1, §2, §3

Structure (SMILES): C=C1C(=O)O[C@H]2[C@H]1[C@@H](O)[C@H](OC(=O)CC(C)C)[C@H](C)CCC(=O)[C@](C)(O)[C@@H]2OC(=O)CC(C)C [Compound 2, divarolide E]
- IC50 ([1]; Homo sapiens, HepG2, 96 h): 7.47 ± 0.21 µM
- IC50 ([2]; Homo sapiens, 96 h): 16.8 ± 0.27 µM
- IC50 ([3]; Homo sapiens, 96 h): 30.7 ± 0.51 µM

Structure (SMILES): C=C(C)C(=O)O[C@H]1[C@H](O)[C@H]2C(=C)C(=O)O[C@@H]2[C@@H](OC(=O)C(C)C)[C@@](C)(O)C(=O)CC[C@H]1C [Compound 3, divarolide F]
- IC50 ([1]; Homo sapiens, HepG2, 96 h): > 40 µM
- IC50 ([2]; Homo sapiens, 96 h): > 40 µM
- IC50 ([3]; Homo sapiens, 96 h): > 40 µM

Structure (SMILES): C=C1C(=O)O[C@H]2[C@H]1[C@@H](O)[C@H](OC(=O)CC(C)C)[C@H](C)CCC(=O)[C@](C)(O)[C@@H]2OC(=O)C(C)CC (stereo partly drawn) [Compound 5, 4β,8α-dihydroxy-5β-2-methylbutyryloxy-9β-3-methylbutyryloxy-3-oxo-germacran-7β, 12α-olide]
- IC50 ([1]; Homo sapiens, HepG2, 96 h): 31.64 ± 0.16 µM
- IC50 ([2]; Homo sapiens, 96 h): 11.6 ± 1 µM
- IC50 ([3]; Homo sapiens, 96 h): > 40 µM

Structure (SMILES): N.N.[Cl][Pt][Cl] [cis-platin, reference compound]
- IC50 ([1]; read-out: IC50 (μM) HepG2): 13 ± 1.49 µM
- IC50 [2]: 15.3 ± 0.35 µM
- IC50 [3]: 7.9 ± 0.23 µM

Structure (SMILES): C=C1C(=O)O[C@H]2[C@H]1[C@@H](O)[C@H](OC(=O)CC(C)C)[C@H](C)CCC(=O)[C@](C)(O)[C@@H]2OC(=O)C(C)C [Compound 1, 4β,8α-dihydroxy-5β-isobutyryloxy-9β-3-methylbutyryloxy-3-oxo-germacran-6α, 12-olide]
- IC50 ([1]; Homo sapiens, HepG2, 96 h): 17 ± 2.23 µM
- IC50 ([2]; Homo sapiens, 96 h): 29.39 ± 0.17 µM
- IC50 ([3]; Homo sapiens, 96 h): > 40 µM

Structure (SMILES): C=C1C(=O)OC2C1C(O)C(OC(=O)C(C)CC)C(C)CCC(=O)C(C)(O)C2OC(=O)C(C)CC (stereo not drawn) [Compound 4, divarolide G]
- IC50 ([1]; Homo sapiens, HepG2, 96 h): > 40 µM
- IC50 ([2]; Homo sapiens, 96 h): > 40 µM
- IC50 ([3]; Homo sapiens, 96 h): > 40 µM
